Test results as given in BindingDB's records for doi:10.1021/jm00081a009 (Glaxo Group Research, 1992).

experiment: Opioid receptor kappa agonist potency was determined in vitro using rabbit vas deferens(LVD) preparation

Row | SMILES | IC50
1 | CC1(CN2CCCC2)CCCCN1C(=O)Cc1ccc(Cl)c(Cl)c1 (stereo not drawn) | > 10000 nM
2 | C=CCC1(CN2CCCC2)CCCCN1C(=O)Cc1ccc(Cl)c(Cl)c1 (stereo not drawn) | > 10000 nM
3 | COC(=O)[C@@H]1CCN(C(=O)Cc2ccc(Cl)c(Cl)c2)[C@H](CN2CCCC2)C1 | 250 nM
4 | O=C(Cc1ccc(Cl)c(Cl)c1)N1CCCCC1CN1CCC(O)C1 (stereo not drawn) | 0.88 nM
5 | COC(=O)/C=C1\CCN(CC2CCCCN2C(=O)Cc2ccc(Cl)c(Cl)c2)C1 (stereo not drawn) | 1020 nM
6 | C[C@H]1CCC[C@@H](CN2CCCC2)N1C(=O)Cc1ccc(Cl)c(Cl)c1 | 1.7 nM
7 | O=C(Cc1ccc(Cl)c(Cl)c1)N1CCCCC1CN1CCCCC1 (stereo not drawn) | 260 nM
8 | O=C1CCN(C(=O)Cc2ccc(Cl)c(Cl)c2)C(CN2CCCC2)C1 (stereo not drawn) | 46 nM
9 | O=C(Cc1ccc(Cl)c(Cl)c1)N1CC[C@H](O)C[C@H]1CN1CCCC1 | 1400 nM
10 | O=C(Cc1ccc(Cl)c(Cl)c1)N1CCC[C@@H](O)[C@H]1CN1CCCC1 | 590 nM
11 | C=C1CCN(CC2CCCCN2C(=O)Cc2ccc(Cl)c(Cl)c2)C1 (stereo not drawn) | 29 nM
12 | O=C(Cc1ccc(Cl)c(Cl)c1)N1CCC2(CC1CN1CCCC1)SCCS2 (stereo not drawn) | 5 nM

experiment: Kappa-opioid receptor agonist potency in vitro using rabbit vas deferens(LVD) preparation

Row | SMILES | IC50
13 | NC(=O)[C@@H]1CCN(C(=O)Cc2ccc(Cl)c(Cl)c2)[C@H](CN2CCCC2)C1 | 1200 nM
14 | O=C1CC[C@@H](CN2CCCC2)N(C(=O)Cc2ccc(Cl)c(Cl)c2)C1 | 390 nM
15 | COC(=O)[C@@H]1CCC[C@@H](CN2CCCC2)N1C(=O)Cc1ccc(Cl)c(Cl)c1 | 110 nM
16 | O=C(Cc1ccc(Cl)c(Cl)c1)N1CC2(CC[C@H]1CN1CCCC1)OCCO2 | 160 nM
17 | COC(=O)C1=CCCN(CC2CCCCN2C(=O)Cc2ccc(Cl)c(Cl)c2)C1 (stereo not drawn) | 15 nM
18 | NC(=O)[C@H]1CCC[C@@H](CN2CCCC2)N1C(=O)Cc1ccc(Cl)c(Cl)c1 | > 10000 nM
19 | O=C1CCCN(C(=O)Cc2ccc(Cl)c(Cl)c2)C1CN1CCCC1 (stereo not drawn) | 2000 nM
20 | O=C(Cc1ccc(Cl)c(Cl)c1)N1CCCCC1CN1CCCO1 (stereo not drawn) | 69 nM
21 | COC(=O)[C@H]1CC[C@@H](CN2CCCC2)N(C(=O)Cc2ccc(Cl)c(Cl)c2)C1 | 300 nM
22 | NC(=O)[C@H]1CC[C@@H](CN2CCCC2)N(C(=O)Cc2ccc(Cl)c(Cl)c2)C1 | > 10000 nM
23 | O=C(Cc1ccc(Cl)c(Cl)c1)N1CCCCC1CN1CC=CCC1 (stereo not drawn) | 6.3 nM
